Among the data in patent US10308639B2, “Phosphatidylinositol 3-kinase inhibitors” (Gilead Sciences, Inc., priority 2014, dated 2019) are IC50 values, retold here.

Structures are written as SMILES. Where two headings read alike, the source gives them in different places.

What all share (assay type): biochemical
The target of experiment [1] is T1, PI3Kδ (Homo sapiens, UniProt O00329).
T1 construct: made in house
Briefly: TR-FRET enzymatic activity assay, PI3Kδ.

In experiment [2] the target is T2, PI3Kγ (Homo sapiens, UniProt P48736).
T2 construct: made in house
In words: TR-FRET enzymatic activity assay, PI3Kγ. Particulars: read-out: PI3Kγ IC50. In a few lines: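 Read-out is TR-FRET. The assay scores enzymatic activity of the individual PI3K isoforms in the presence of compound.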

Experiment [3] addresses T3, PI3Kβ (Homo sapiens, UniProt P42338).
T3 construct: made in house
In words: TR-FRET enzymatic activity assay, PI3Kβ. On the technique in general: Time-resolved FRET reads energy transfer from a long-lived donor to a nearby acceptor.

Setting [4] is: Table 2, TR-FRET, 2x Km ATP, 30 minutes at 25° C.

T3 sequence (P42338 whole entry): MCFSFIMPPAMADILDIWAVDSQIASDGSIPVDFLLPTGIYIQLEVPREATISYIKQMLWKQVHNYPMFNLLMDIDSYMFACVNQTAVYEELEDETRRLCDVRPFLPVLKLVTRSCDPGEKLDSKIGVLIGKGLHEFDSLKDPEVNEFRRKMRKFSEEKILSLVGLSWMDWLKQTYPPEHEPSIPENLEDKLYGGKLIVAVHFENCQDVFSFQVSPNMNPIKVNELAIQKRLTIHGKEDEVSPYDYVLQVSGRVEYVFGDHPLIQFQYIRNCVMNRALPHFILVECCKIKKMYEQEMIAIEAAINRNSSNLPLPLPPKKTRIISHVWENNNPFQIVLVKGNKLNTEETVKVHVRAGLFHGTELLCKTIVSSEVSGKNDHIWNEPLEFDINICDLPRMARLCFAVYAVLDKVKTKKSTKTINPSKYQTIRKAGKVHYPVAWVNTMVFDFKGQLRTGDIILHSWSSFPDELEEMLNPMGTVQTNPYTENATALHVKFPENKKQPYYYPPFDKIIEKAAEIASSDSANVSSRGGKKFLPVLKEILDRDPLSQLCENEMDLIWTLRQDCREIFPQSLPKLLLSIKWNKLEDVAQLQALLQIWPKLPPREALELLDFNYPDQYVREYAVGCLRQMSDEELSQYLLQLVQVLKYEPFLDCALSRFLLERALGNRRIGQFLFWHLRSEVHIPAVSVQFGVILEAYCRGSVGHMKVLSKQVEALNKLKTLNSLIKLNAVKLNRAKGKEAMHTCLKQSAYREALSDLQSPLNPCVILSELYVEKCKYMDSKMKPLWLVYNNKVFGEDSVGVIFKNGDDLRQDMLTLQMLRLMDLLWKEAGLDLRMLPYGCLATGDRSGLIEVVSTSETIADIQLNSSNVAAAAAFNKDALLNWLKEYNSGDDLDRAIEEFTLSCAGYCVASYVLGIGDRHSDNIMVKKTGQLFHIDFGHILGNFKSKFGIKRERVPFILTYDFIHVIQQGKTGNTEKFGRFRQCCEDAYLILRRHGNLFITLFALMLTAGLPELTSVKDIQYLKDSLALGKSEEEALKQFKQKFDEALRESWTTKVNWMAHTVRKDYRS
T3 sequence (P27986 whole entry partner): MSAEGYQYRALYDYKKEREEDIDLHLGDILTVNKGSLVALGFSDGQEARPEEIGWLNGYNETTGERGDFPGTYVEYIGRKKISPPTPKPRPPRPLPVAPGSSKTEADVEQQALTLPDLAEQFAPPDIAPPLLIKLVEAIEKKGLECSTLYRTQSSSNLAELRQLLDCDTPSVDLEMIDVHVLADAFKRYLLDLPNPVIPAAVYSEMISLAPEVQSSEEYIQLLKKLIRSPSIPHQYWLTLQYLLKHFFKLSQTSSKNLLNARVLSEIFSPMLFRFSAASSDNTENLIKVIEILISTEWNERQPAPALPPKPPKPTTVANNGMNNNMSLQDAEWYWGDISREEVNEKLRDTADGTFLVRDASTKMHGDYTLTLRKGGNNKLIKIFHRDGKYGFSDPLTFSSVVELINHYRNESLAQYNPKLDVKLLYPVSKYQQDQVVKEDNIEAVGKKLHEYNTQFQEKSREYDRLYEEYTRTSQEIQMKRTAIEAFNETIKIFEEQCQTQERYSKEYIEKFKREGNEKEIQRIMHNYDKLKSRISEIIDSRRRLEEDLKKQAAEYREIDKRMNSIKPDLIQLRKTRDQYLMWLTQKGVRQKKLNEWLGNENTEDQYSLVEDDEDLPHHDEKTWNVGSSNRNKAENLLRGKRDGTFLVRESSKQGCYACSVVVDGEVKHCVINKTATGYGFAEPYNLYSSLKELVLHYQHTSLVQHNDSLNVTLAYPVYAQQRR
T2 sequence (P48736 whole entry): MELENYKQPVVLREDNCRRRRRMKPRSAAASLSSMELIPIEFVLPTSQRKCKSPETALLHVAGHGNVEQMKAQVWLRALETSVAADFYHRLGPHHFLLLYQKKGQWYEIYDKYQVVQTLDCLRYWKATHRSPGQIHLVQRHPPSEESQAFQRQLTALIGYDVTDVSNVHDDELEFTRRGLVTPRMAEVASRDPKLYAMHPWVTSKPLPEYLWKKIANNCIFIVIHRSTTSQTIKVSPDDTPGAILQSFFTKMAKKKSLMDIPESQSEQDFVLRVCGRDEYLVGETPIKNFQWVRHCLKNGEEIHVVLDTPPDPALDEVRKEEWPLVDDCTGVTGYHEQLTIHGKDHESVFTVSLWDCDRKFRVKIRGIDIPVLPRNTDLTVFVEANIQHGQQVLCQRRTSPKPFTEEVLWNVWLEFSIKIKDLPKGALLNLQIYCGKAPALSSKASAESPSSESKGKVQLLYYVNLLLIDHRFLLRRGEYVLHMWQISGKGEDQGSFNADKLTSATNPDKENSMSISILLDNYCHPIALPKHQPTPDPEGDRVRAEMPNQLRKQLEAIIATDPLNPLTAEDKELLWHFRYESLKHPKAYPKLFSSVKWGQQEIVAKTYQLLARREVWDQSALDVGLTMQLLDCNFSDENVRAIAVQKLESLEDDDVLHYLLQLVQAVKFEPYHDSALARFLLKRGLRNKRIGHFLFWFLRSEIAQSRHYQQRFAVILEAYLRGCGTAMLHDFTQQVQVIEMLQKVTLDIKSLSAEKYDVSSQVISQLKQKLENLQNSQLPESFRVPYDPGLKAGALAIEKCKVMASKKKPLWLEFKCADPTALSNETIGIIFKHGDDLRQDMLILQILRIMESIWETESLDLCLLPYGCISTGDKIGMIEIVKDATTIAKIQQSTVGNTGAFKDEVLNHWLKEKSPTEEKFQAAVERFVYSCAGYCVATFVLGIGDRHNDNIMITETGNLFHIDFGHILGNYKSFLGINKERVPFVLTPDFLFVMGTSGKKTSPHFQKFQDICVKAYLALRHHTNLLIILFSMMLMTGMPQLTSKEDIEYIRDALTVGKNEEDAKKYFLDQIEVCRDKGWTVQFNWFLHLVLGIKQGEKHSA
T1 sequence (O00329 whole entry): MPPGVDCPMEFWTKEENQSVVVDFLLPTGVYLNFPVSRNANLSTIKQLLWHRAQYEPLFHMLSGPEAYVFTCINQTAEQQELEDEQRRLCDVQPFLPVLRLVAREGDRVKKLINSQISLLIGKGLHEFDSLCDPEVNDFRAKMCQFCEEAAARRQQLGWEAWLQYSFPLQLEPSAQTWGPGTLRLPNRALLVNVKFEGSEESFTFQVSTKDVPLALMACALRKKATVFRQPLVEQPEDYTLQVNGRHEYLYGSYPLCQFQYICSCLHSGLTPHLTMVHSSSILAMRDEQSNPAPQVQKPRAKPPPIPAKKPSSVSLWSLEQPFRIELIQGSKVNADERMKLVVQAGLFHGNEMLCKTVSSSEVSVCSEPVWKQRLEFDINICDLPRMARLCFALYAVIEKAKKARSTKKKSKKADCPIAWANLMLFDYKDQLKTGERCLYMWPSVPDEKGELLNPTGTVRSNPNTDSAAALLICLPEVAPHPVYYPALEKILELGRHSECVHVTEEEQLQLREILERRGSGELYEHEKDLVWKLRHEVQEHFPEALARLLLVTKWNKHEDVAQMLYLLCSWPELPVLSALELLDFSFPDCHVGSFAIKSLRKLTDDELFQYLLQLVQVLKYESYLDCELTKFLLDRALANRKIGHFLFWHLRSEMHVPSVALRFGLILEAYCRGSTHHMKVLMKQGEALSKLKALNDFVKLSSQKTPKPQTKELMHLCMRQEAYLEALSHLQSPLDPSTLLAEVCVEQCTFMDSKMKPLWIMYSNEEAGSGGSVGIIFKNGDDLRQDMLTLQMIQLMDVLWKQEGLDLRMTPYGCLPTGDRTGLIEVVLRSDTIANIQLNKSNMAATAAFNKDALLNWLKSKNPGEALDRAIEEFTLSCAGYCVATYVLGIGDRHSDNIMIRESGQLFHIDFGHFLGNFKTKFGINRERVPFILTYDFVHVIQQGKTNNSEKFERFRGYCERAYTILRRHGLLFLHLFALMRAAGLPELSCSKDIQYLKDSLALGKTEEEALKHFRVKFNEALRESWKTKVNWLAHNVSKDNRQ
T1 sequence (P27986 whole entry partner): as the sequence (P27986 whole entry partner) above

The IC50 is the midpoint of a concentration-inhibition curve. On to `C[C@H](Nc1nc(N)nc(N)c1C#N)c1nc2cc(F)cc(Cl)c2c(=O)n1-c1cc[nH]n1` [Compound 237, (S)-2,4-diamino-6-((1-(5-chloro-7-fluoro-4-oxo-3-(1H-pyrazol-3-yl)-3,4-dihydroquinazolin-2-yl)ethyl)amino)pyrimidine-5-carbonitrile], for which the IC50 came out at 2 nM in experiment [1] (Table 2a, same assay); 1400 nM in experiment [2] (Table 2a, same assay); 2 nM in experiment [3] (Table 2a, same assay).
Take `CC[C@H](NC(=O)c1cnn2cccnc12)c1nc2c(Cl)ccc(Cl)c2c(=O)n1-c1cc[nH]n1` [Compound 120, (S)—N-(1-(5,8-dichloro-4-oxo-3-(1H-pyrazol-3-yl)-3,4-dihydroquinazolin-2-yl)propyl)pyrazolo[1,5-a]pyrimidine-3-carboxamide]: the IC50 in experiment [1] (setting [4]) is 720 nM; in experiment [2] it was > 10000 nM; in experiment [3] (setting [4]) it was 530 nM.
`C[C@@H](Nc1nc(N)nc(N)c1C#N)c1nc2cccc(C(F)F)c2c(=O)n1-c1cc[nH]n1` [Compound 182, (R)-2,4-diamino-6-((1-(5-(difluoromethyl)-4-oxo-3-(1H-pyrazol-3-yl)-3,4-dihydroquinazolin-2-yl)ethyl)amino)pyrimidine-5-carbonitrile]: the IC50 was 8 nM in experiment [1] (Table 2a, same assay); 7300 nM in experiment [2] (Table 2a, same assay); 18 nM in experiment [3] (Table 2a, same assay).
Regarding `Cc1ccc(Cl)c2nc([C@H](C)Nc3nc(N)nc(N)c3Cl)n(-c3cc[nH]n3)c(=O)c12` [Compound 223, (S)-8-chloro-2-(1-((2,6-diamino-5-chloropyrimidin-4-yl)amino)ethyl)-5-methyl-3-(1H-pyrazol-3-yl)quinazolin-4(3H)-one], the IC50 in experiment [1] (Table 2a, same assay) is 3 nM; in experiment [2] (Table 2a, same assay), 9400 nM; in experiment [3] (Table 2a, same assay), 3 nM.
With `C[C@@H](Nc1nc(N)nc(N)c1Cl)c1nc2cccc(C(F)F)c2c(=O)n1-c1cc[nH]n1` [Compound 181, (R)-2-(1-((2,6-diamino-5-chloropyrimidin-4-yl)amino)ethyl)-5-(difluoromethyl)-3-(1H-pyrazol-3-yl)quinazolin-4(3H)-one], the IC50 was 77 nM in experiment [1] (Table 2a, same assay); > 10000 nM in experiment [2] (Table 2a, same assay); 65 nM in experiment [3] (Table 2a, same assay).
Turning to `O=c1c2c(Cl)cccc2nc([C@H](COCc2ccccc2)Nc2ncnc3scnc23)n1-c1cn[nH]c1` [Compound 47, (R)-2-(2-(benzyloxy)-1-(thiazolo[5,4-d]pyrimidin-7-ylamino)ethyl)-5-chloro-3-(1H-pyrazol-4-yl)quinazolin-4(3H)-one], the IC50 in experiment [1] (setting [4]) was determined as 11 nM; in experiment [2] (setting [4]), 2400 nM; in experiment [3] (setting [4]) it was 11 nM.
As for `Nc1nc(N)c(Cl)c(N[C@H](c2nc3c(F)cc(F)cc3c(=O)n2-c2cc[nH]n2)C2CC2)n1` [Compound 162, (S)-2-(cyclopropyl((2,6-diamino-5-chloropyrimidin-4-yl)amino)methyl)-6,8-difluoro-3-(1H-pyrazol-3-yl)quinazolin-4(3H)-one], the IC50 in experiment [1] (Table 2a, same assay) worked out at 5 nM; in experiment [2] (Table 2a, same assay), 6100 nM; in experiment [3] (Table 2a, same assay), 37 nM.
Regarding `N#Cc1c(N)nc(N)nc1N[C@@H](c1ccccc1)c1nc2cccc(Cl)c2c(=O)n1-c1cc[nH]n1` [Compound 105, (S)-2,4-diamino-6-(((5-chloro-4-oxo-3-(1H-pyrazol-3-yl)-3,4-dihydroquinazolin-2-yl)(phenyl)methyl)amino)pyrimidine-5-carbonitrile], the IC50 stood at 3 nM in experiment [1] (setting [4]), 680 nM in experiment [2] (setting [4]) and 5 nM in experiment [3] (setting [4]).
As to `Nc1nc(N)c(Cl)c(N[C@H](c2nc3c(F)ccc(Cl)c3c(=O)n2-c2cc[nH]n2)C2CC2)n1` [Compound 70, (S)-5-chloro-2-(cyclopropyl((2,6-diamino-5-chloropyrimidin-4-yl)amino)methyl)-8-fluoro-3-(1H-pyrazol-3-yl)quinazolin-4(3H)-one], the concentration for half-maximal inhibition (IC50) in experiment [1] (setting [4]) was 14 nM; in experiment [2], > 10000 nM; in experiment [3] (setting [4]) it was 30 nM.
Regarding `C[C@H](Nc1nc(N)nc(N)c1C#N)c1nc2c(F)cc(F)cc2c(=O)n1-c1cc[nH]n1` [Compound 169, (S)-2,4-diamino-6-((1-(6,8-difluoro-4-oxo-3-(1H-pyrazol-3-yl)-3,4-dihydroquinazolin-2-yl)ethyl)amino)pyrimidine-5-carbonitrile], the IC50 in experiment [1] (Table 2a, same assay) came to 0.6 nM; in experiment [2] (Table 2a, same assay), 260 nM; in experiment [3] (Table 2a, same assay) it was 1 nM.
Consider `CCC[C@H](Nc1nc(N)nc(N)c1C#N)c1nc2ccc(F)c(Cl)c2c(=O)n1-c1cc[nH]n1` [Compound 268, (S)-2,4-diamino-6-((1-(5-chloro-6-fluoro-4-oxo-3-(1H-pyrazol-3-yl)-3,4-dihydroquinazolin-2-yl)butyl)amino)pyrimidine-5-carbonitrile], for which the IC50 worked out at 2 nM in experiment [1] (Table 2a, same assay); 900 nM in experiment [2] (Table 2a, same assay); 5 nM in experiment [3] (Table 2a, same assay).
On to `CC[C@H](Nc1nc(N)nc(N)c1C#N)c1nc2cccc(Br)c2c(=O)n1-c1cn[nH]c1` [Compound 99, (S)-2,4-diamino-6-((1-(5-bromo-4-oxo-3-(1H-pyrazol-4-yl)-3,4-dihydroquinazolin-2-yl)propyl)amino)pyrimidine-5-carbonitrile], for which the IC50 in experiment [1] (setting [4]) was 1 nM; in experiment [2] (setting [4]), 93 nM; in experiment [3] (setting [4]), 0.8 nM.
For the compound `N#Cc1cc(F)cc2c(=O)n(-c3cc[nH]n3)c([C@@H](Nc3nc(N)nc(N)c3Cl)C3CC3)nc12` [Compound 273, (S)-2-(cyclopropyl((2,6-diamino-5-chloropyrimidin-4-yl)amino)methyl)-6-fluoro-4-oxo-3-(1H-pyrazol-3-yl)-3,4-dihydroquinazoline-8-carbonitrile], the IC50 in experiment [1] (Table 2a, same assay) is 21 nM; in experiment [2] (Table 2a, same assay) it was > 10000 nM; in experiment [3] (Table 2a, same assay), 18 nM.
On to `CC[C@H](Nc1ncnn2ccnc12)c1nc2c(Cl)ccc(Cl)c2c(=O)n1-c1cn[nH]c1` [Compound 40, (S)-5,8-dichloro-2-(1-(imidazo[2,1-f][1,2,4]triazin-4-ylamino)propyl)-3-(1H-pyrazol-4-yl)quinazolin-4(3H)-one], for which the results for the half-inhibitory concentration (IC50) in experiment [1] (setting [4]), in experiment [2] (setting [4]) and in experiment [3] (setting [4]) were 38 nM, 8700 nM and 280 nM, respectively.
With `C[C@H](Nc1ncnc(N)c1C#N)c1nc2cccc(Cl)c2c(=O)n1-c1cc(C2CC2)[nH]n1` [Compound 5, (S)-4-amino-6-((1-(5-chloro-3-(5-cyclopropyl-1H-pyrazol-3-yl)-4-oxo-3,4-dihydroquinazolin-2-yl)ethyl)amino)pyrimidine-5-carbonitrile], the IC50 in experiment [1] (setting [4]) was 28 nM; in experiment [2], > 10000 nM; in experiment [3] (setting [4]) it was 340 nM.
For `CC[C@H](Nc1nc(N)nc(N)c1C#N)c1nc2cccc(Br)c2c(=O)n1-c1cc[nH]n1` [Compound 98, (S)-2,4-diamino-6-((1-(5-bromo-4-oxo-3-(1H-pyrazol-3-yl)-3,4-dihydroquinazolin-2-yl)propyl)amino)pyrimidine-5-carbonitrile], the IC50 worked out at 0.6 nM in experiment [1] (setting [4]), 110 nM in experiment [2] (setting [4]) and 0.3 nM in experiment [3] (setting [4]).
For `C[C@H](Nc1nc(N)nc(C(F)F)c1C#N)c1nc2c(C(F)F)cc(F)cc2c(=O)n1-c1cc[nH]n1` [Compound 142, (S)-2-amino-4-(difluoromethyl)-6-((1-(8-(difluoromethyl)-6-fluoro-4-oxo-3-(1H-pyrazol-3-yl)-3,4-dihydroquinazolin-2-yl)ethyl)amino)pyrimidine-5-carbonitrile], the IC50 in experiment [1] (Table 2a, same assay) is 47 nM; in experiment [2] (Table 2a, same assay) it was > 10000 nM; in experiment [3] (Table 2a, same assay), 35 nM.
Turning to `N#Cc1c(N)nc(N)nc1N[C@H](c1nc2c(Cl)ccc(Cl)c2c(=O)n1-c1cn[nH]c1)C1CC1` [Compound 31, (S)-2,4-diamino-6-((cyclopropyl(5,8-dichloro-4-oxo-3-(1H-pyrazol-4-yl)-3,4-dihydroquinazolin-2-yl)methyl)amino)pyrimidine-5-carbonitrile], the 50% inhibitory concentration (IC50) in experiment [1] (setting [4]) amounted to 1 nM; in experiment [2] (setting [4]), 160 nM; in experiment [3] (setting [4]), 1 nM.
Turning to `C[C@H](NC(=O)c1c(N)nn2cccnc12)c1nc2cccc(Cl)c2c(=O)n1-c1cc[nH]n1` [Compound 117, (S)-2-amino-N-(1-(5-chloro-4-oxo-3-(1H-pyrazol-3-yl)-3,4-dihydroquinazolin-2-yl)ethyl)pyrazolo[1,5-a]pyrimidine-3-carboxamide], the half-inhibitory concentration (IC50) came out at 110 nM in experiment [1] (setting [4]), 160 nM in experiment [2] (setting [4]) and 37 nM in experiment [3] (setting [4]).
Regarding `Cc1cc(-n2c([C@H](C)Nc3ncnc4scnc34)nc3cccc(Cl)c3c2=O)n[nH]1` [Compound 8, (S)-5-chloro-3-(5-methyl-1H-pyrazol-3-yl)-2-(1-(thiazolo[5,4-d]pyrimidin-7-ylamino)ethyl)quinazolin-4(3H)-one], the IC50 in experiment [1] (setting [4]) is 11 nM; in experiment [2] it was > 10000 nM; in experiment [3] (setting [4]) it was 41 nM.
`C[C@H](Nc1nc(N)nc(N)c1C(F)(F)F)c1nc2cccc(Cl)c2c(=O)n1-c1cc[nH]n1` [Compound 201, (S)-5-chloro-2-(1-((2,6-diamino-5-(trifluoromethyl)pyrimidin-4-yl)amino)ethyl)-3-(1H-pyrazol-3-yl)quinazolin-4(3H)-one]: the concentration for half-maximal inhibition (IC50) in experiment [1] (Table 2a, same assay) stood at 3 nM; in experiment [2] (Table 2a, same assay), 1000 nM; in experiment [3] (Table 2a, same assay), 3 nM.
Consider `C[C@H](Nc1nc(Cl)nc2[nH]ncc12)c1nc2cccc(Cl)c2c(=O)n1-c1cc[nH]n1` [Compound 91, (S)-5-chloro-2-(1-((6-chloro-1H-pyrazolo[3,4-d]pyrimidin-4-yl)amino)ethyl)-3-(1H-pyrazol-3-yl)quinazolin-4(3H)-one], for which the IC50 is 2400 nM in experiment [1] (setting [4]), > 10000 nM in experiment [2] and 3600 nM in experiment [3] (setting [4]).
With `C[C@H](Nc1ncnc2sccc12)c1nc2cccc(Cl)c2c(=O)n1-c1cc[nH]n1` [Compound 60, (S)-5-chloro-3-(1H-pyrazol-3-yl)-2-(1-(thieno[2,3-d]pyrimidin-4-ylamino)ethyl)quinazolin-4(3H)-one], the IC50 in experiment [1] (setting [4]) is 2 nM; in experiment [2], > 10000 nM; in experiment [3] (setting [4]), 43 nM.
